Results as given in patent US11547761B1, “Antibody adjuvant conjugates” (The Board of Trustees of the Leland Stanford Junior …, priority 2016, dated 2023).
Values belong to the molecule of their own block, whether it stands above or below them.

Key:
[1] = system: murine monocyte derived APCs; test: Cytokine secretion in murine monocyte derived APCs (GM-CSF-pretreated monocytes); assay type: cell-based; settings: 18 hours
Procedure: Specifically, cytokine production is shown in FIG. 21 for GM-CSF-pretreated monocytes that were stimulated for 18 hours with the immunoconjugates or equivalent amounts of the unconjugated components.

[2] = molecular target: T1, human TLR7 (Homo sapiens, UniProt Q9NYK1); test: HEK293 TLR reporter (secreted embryonic alkaline phosphatase) assay; assay type: cell-based; settings: 2-fold serial dilutions, 12 hours at 37° C.
T1 construct: expressed in transfected cells; host or cells: HEK293
T1 sequence (Q9NYK1 27-1049): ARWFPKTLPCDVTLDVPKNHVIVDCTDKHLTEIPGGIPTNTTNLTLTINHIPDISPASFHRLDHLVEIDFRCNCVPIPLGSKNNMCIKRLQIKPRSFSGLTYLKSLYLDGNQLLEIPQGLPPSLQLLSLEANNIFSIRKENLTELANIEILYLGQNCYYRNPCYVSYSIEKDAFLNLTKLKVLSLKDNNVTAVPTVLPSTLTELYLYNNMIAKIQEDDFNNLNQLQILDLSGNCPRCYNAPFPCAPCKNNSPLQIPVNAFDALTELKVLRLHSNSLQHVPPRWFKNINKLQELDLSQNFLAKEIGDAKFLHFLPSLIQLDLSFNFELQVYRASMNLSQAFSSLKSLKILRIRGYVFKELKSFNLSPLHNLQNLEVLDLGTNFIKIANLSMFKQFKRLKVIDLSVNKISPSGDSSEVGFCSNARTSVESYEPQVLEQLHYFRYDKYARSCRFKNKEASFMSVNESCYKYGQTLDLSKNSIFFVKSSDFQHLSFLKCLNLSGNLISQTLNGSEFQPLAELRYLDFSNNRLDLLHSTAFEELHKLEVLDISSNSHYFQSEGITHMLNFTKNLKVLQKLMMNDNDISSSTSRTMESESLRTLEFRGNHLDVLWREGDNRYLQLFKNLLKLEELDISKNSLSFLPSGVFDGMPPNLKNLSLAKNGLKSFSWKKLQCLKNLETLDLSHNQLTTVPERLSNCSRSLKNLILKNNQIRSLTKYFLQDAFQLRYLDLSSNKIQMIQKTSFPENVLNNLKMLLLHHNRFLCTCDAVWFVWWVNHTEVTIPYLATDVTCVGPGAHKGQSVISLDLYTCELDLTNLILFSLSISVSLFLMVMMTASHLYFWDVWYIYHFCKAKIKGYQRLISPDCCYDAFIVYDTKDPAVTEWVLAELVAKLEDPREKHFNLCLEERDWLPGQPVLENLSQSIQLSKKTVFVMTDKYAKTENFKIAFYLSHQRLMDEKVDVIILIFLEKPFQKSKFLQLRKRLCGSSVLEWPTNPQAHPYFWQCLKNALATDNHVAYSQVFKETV
Procedure: (§1) HEK293 cells were co-transfected with human TLR7 or TLR8 (top two panels) or murine TLR7 (bottom panel) and an inducible secreted embryonic alkaline phosphatase reporter gene under the control of the IFN-β minimal promoter fused to NF-κB and AP-1 binding sites. Cells were subsequently incubated with 2-fold serial dilutions of the indicated adjuvant for 12 hours at 37° C. Activity was measured by spectrophotometry (OD 650 nm) following addition of alkaline phosphatase substrate.
(§2) Next, the capacity of each functionalized TLR agonist to activate human TLR7 or TLR8 was directly assayed. HEK293 cells were co-transfected with human TLR7 or TLR8 or murine TLR7 and an inducible secreted embryonic alkaline phosphatase reporter gene under the control of the IFN-β minimal promoter fused to NF-κB and AP-1 binding sites. Cells were subsequently incubated with 2-fold serial dilutions of each the indicated adjuvants for 12 hours at 37 C in the presence of an alkaline phosphatase substrate. Activity was measured by spectrophotometry (OD 650 nm).

[3] = molecular target: T2, murine TLR7 (Mus musculus, UniProt P58681); test: as above; assay type: cell-based; settings: 2-fold serial dilutions, 12 hours at 37° C.
T2 construct: expressed in transfected cells; host or cells: HEK293
T2 sequence (P58681 27-1050): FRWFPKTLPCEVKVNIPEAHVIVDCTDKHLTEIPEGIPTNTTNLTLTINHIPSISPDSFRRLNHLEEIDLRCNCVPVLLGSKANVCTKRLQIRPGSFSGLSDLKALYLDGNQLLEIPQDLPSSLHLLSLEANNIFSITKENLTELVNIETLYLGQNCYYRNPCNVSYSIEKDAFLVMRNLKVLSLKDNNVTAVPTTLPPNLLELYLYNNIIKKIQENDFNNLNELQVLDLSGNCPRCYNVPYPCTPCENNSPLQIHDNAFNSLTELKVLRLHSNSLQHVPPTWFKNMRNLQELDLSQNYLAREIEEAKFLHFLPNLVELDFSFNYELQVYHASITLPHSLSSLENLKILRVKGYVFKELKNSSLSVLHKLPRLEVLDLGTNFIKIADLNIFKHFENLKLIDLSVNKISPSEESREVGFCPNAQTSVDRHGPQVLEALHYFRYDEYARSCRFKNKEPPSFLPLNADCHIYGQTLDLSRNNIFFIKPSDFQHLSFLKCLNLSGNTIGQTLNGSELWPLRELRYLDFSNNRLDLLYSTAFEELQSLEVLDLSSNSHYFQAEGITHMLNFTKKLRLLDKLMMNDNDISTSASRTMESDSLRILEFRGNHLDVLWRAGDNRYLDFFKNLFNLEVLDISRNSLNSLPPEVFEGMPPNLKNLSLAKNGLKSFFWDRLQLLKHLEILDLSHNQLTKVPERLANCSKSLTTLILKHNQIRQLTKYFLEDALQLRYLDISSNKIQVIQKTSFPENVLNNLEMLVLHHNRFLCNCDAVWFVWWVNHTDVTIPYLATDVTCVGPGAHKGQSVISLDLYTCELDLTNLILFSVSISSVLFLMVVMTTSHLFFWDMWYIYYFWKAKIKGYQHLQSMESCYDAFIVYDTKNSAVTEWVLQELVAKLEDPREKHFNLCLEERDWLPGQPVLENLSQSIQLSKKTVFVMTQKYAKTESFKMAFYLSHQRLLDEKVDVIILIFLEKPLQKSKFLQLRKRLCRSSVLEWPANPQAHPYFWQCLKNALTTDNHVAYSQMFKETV
Procedure: as §1, §2

[4] = molecular target: T3, human TLR8 (Homo sapiens, UniProt Q9NR97); test: as above; assay type: cell-based; settings: 2-fold serial dilutions, 12 hours at 37° C.
T3 construct: expressed in transfected cells; host or cells: HEK293
T3 sequence (Q9NR97 27-1041): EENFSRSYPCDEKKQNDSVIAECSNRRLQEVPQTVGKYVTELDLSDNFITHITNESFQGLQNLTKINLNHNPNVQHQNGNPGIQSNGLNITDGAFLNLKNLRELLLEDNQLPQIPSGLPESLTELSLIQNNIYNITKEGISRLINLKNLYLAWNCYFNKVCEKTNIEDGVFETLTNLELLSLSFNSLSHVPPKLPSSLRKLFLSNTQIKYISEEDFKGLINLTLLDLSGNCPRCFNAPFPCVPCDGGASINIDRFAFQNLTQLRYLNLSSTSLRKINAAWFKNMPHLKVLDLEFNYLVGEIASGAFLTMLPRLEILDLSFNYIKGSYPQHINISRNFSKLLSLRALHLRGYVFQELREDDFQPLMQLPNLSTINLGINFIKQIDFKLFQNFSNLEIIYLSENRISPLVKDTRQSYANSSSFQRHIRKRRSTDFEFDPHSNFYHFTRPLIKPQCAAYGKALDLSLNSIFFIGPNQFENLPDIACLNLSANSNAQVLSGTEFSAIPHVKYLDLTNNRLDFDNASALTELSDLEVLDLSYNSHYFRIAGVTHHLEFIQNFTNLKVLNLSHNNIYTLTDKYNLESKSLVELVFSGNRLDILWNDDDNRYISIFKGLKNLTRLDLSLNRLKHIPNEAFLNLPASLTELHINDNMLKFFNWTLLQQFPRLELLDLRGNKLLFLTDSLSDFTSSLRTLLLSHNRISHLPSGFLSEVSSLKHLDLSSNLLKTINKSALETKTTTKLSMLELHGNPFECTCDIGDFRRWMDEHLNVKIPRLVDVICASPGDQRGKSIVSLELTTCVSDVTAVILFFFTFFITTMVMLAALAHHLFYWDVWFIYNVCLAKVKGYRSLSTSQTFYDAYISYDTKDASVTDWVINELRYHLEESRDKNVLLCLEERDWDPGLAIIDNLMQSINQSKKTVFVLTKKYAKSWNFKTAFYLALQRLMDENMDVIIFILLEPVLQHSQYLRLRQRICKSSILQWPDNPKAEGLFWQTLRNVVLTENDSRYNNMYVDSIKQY
Procedure: as §1, §2

[5] = system: human antigen presenting cells; test: Stimulation of human antigen presenting cells with free adjuvants, flow cytometry; assay type: cell-based; settings: peripheral blood APCs, 10-fold serial dilutions, 18 hours, 37° C.
Procedure: Peripheral blood antigen presenting cells (APCs) were stimulated with 10-fold serial dilutions of R848, Compound 2 or a control TLR agonist at 37° C. After 18 hours, cells were analyzed via flow cytometry. Data are presented as median fluorescence intensity of each indicated marker; n=3.
To determine if adjuvant functionalization impacted the capacity of Compound 2 or Compound 1 to elicit immune activation, human antigen presenting cells were stimulated with 10-fold serial dilutions of R848, Compound 2, Compound 1 or a control TLR agonist, CL307, for 18 hours prior to analysis via flow cytometry.

[6] = system: recombinant human CD16a protein; test: ELISA binding to CD16a; settings: titration
Procedure: Maxysorp ELISA plates were coated overnight with 1.5 ug/ml recombinant human CD16a protein (R&D Systems 4325-FC-050). Plates were blocked with PBS containing 1% BSA, and incubated with a titration of antibodies or antibody immunoconjugates. Bound antibodies were detected with Peroxidase conjugated AffiniPure F(ab′)2 Fragment Goat Anti-Human IgG (Jackson 109-036-003). TMB (Fisher PI34028) was added to the wells and absorbance at 450 nm was measured after stopping the reaction with TMB stop solution (Fisher NC1291012).

[7] = molecular target: T4, recombinant human CD64 protein (Homo sapiens, UniProt P12314); test: ELISA binding to CD64; settings: titration
T4 construct: purchased R&D Systems
Procedure: Maxysorp ELISA plates were coated overnight with 1.5 ug/ml recombinant human CD64 protein (R&D Systems). Plates were blocked with PBS containing 1% BSA, and incubated with a titration of Rituximab or Rituximab immunoconjugates (Rituximab BB-01). Bound antibodies were detected with Peroxidase conjugated AffiniPure F(ab′)2 Fragment Goat Anti-Human IgG (Jackson) using TMB color development and absorbance at 450 nm was measured after stopping the reaction.

T4 sequence (P12314 16-374): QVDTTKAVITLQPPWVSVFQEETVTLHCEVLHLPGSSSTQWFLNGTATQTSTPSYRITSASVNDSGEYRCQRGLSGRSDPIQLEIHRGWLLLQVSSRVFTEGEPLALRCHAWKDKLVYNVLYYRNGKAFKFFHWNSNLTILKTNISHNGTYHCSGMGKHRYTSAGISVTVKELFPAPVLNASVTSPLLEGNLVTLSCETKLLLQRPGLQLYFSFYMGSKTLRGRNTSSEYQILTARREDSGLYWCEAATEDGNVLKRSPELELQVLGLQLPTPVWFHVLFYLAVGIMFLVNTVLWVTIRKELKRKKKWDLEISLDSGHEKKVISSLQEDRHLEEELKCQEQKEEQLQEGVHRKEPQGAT

- human TLR7 activation (OD 650 nm) [2]: activated both human TLR7 and TLR8
- murine TLR7 activation (OD 650 nm) [3]: activated murine TLR7
- human TLR8 activation (OD 650 nm) [4]: activated both human TLR7 and TLR8
Molecule: CCCCc1nc2c(N)nc3ccccc3c2n1CCCCN [Compound 1]
- cytokine response (TNFα, IL-6, IL-12p70) [1]: failed to produce any cytokine response
- myeloid cell activation (median fluorescence intensity of activation markers) [5]: performed similarly to R848

- binding to CD16a (fraction of maximal OD signal) [6]: diminished binding
Molecule: aglycosyl Rituximab: aglycosyl Rituximab (Invivogen hcd20-mab12)

- binding to CD64 [7]: impaired binding to CD64
Molecule: deglycosylated Rituximab: Rituximab deglycosylated with PNGase F
